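Grown in 96-well plates, cells were treated for 48 hours with each compound at five concentrations. Insufficient inhibition: endpoint recorded as highest concentration tested. TGI is the concentration that stops growth completely.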
Key:
Assay in all cases: NCI tumour cell line growth inhibition, 48 h
786-0 renal = system: 786-0 renal
A498 renal = system: A498 renal
A549 NSCLC = system: A549 NSCLC
ACHN renal = system: ACHN renal
BT-549 breast = system: BT-549 breast
CAKI-1 renal = system: CAKI-1 renal
CCRF-CEM leukemia = system: CCRF-CEM leukemia
COLO 205 colon = system: COLO 205 colon
DU-145 prostate = system: DU-145 prostate
EKVX NSCLC = system: EKVX NSCLC
HCT-116 colon = system: HCT-116 colon
HCT-15 colon = system: HCT-15 colon
HL-60(TB) leukemia = system: HL-60(TB) leukemia
HOP-62 NSCLC = system: HOP-62 NSCLC
HOP-92 NSCLC = system: HOP-92 NSCLC
HS 578T breast = system: HS 578T breast
HT29 colon = system: HT29 colon
IGROV1 ovarian = system: IGROV1 ovarian
K-562 leukemia = system: K-562 leukemia
KM12 colon = system: KM12 colon
LOX IMVI melanoma = system: LOX IMVI melanoma
M14 melanoma = system: M14 melanoma
MALME-3M melanoma = system: MALME-3M melanoma
MCF7 breast = system: MCF7 breast
MDA-MB-231 breast = system: MDA-MB-231 breast
MDA-MB-435 = system: MDA-MB-435
MDA-N = system: MDA-N
MOLT-4 leukemia = system: MOLT-4 leukemia
NCI-H226 lung = system: NCI-H226 lung
NCI-H23 lung = system: NCI-H23 lung
NCI-H460 lung = system: NCI-H460 lung
NCI-H522 lung = system: NCI-H522 lung
NCI/ADR-RES ovarian = system: NCI/ADR-RES ovarian
OVCAR-3 ovarian = system: OVCAR-3 ovarian
OVCAR-4 ovarian = system: OVCAR-4 ovarian
OVCAR-5 ovarian = system: OVCAR-5 ovarian
OVCAR-8 ovarian = system: OVCAR-8 ovarian
PC-3 prostate = system: PC-3 prostate
RPMI-8226 leukemia = system: RPMI-8226 leukemia
RXF 393 renal = system: RXF 393 renal
SF-268 CNS = system: SF-268 CNS
SF-295 CNS = system: SF-295 CNS
SF-539 CNS = system: SF-539 CNS
SK-MEL-2 melanoma = system: SK-MEL-2 melanoma
SK-MEL-28 melanoma = system: SK-MEL-28 melanoma
SK-MEL-5 melanoma = system: SK-MEL-5 melanoma
SK-OV-3 ovarian = system: SK-OV-3 ovarian
SN12C renal = system: SN12C renal
SNB-19 CNS = system: SNB-19 CNS
SNB-75 CNS = system: SNB-75 CNS
SR leukemia = system: SR leukemia
SW-620 colon = system: SW-620 colon
T-47D breast = system: T-47D breast
TK-10 renal = system: TK-10 renal
U251 CNS = system: U251 CNS
UACC-257 melanoma = system: UACC-257 melanoma
UACC-62 melanoma = system: UACC-62 melanoma
UO-31 renal = system: UO-31 renal
HCC-2998 colon = system: HCC-2998 colon

Measured: TGI

C1CN2CCNCCN(CCN1)CC2
> 100 µM: 786-0 renal | A498 renal | A549 NSCLC | ACHN renal | BT-549 breast | CAKI-1 renal | CCRF-CEM leukemia | COLO 205 colon | DU-145 prostate | EKVX NSCLC | HCT-116 colon | HCT-15 colon | HL-60(TB) leukemia | HOP-62 NSCLC | HOP-92 NSCLC | HS 578T breast | HT29 colon | IGROV1 ovarian | K-562 leukemia | KM12 colon | LOX IMVI melanoma | M14 melanoma | MALME-3M melanoma | MCF7 breast | MDA-MB-231 breast | MDA-MB-435 | MDA-N | MOLT-4 leukemia | NCI-H226 lung | NCI-H23 lung | NCI-H460 lung | NCI-H522 lung | NCI/ADR-RES ovarian | OVCAR-3 ovarian | OVCAR-4 ovarian | OVCAR-5 ovarian | OVCAR-8 ovarian | PC-3 prostate | RPMI-8226 leukemia | RXF 393 renal | SF-268 CNS | SF-295 CNS | SF-539 CNS | SK-MEL-2 melanoma | SK-MEL-28 melanoma | SK-MEL-5 melanoma | SK-OV-3 ovarian | SN12C renal | SNB-19 CNS | SNB-75 CNS | SR leukemia | SW-620 colon | T-47D breast | TK-10 renal | U251 CNS | UACC-257 melanoma | UACC-62 melanoma | UO-31 renal

COc1ccc(/C=C/C(=O)c2ccc(OC(=O)/C=C/c3ccccc3)cc2)cc1
> 82.2 µM: SNB-75 CNS
97.8 µM: NCI-H460 lung
> 87.2 µM: MDA-MB-231 breast
> 63.7 µM: UACC-62 melanoma
26.4 µM: KM12 colon
73.8 µM: NCI-H23 lung
39.6 µM: HT29 colon
> 83.2 µM: OVCAR-8 ovarian
54.7 µM: NCI-H522 lung
24.7 µM: RPMI-8226 leukemia
> 64 µM: SF-295 CNS
32.8 µM: HCC-2998 colon
21.5 µM: CCRF-CEM leukemia
40.4 µM: HCT-116 colon
50.6 µM: MOLT-4 leukemia
> 58.3 µM: BT-549 breast
16.9 µM: SR leukemia
33.7 µM: HL-60(TB) leukemia
> 100 µM: A549 NSCLC | ACHN renal | HCT-15 colon | HOP-62 NSCLC | HOP-92 NSCLC | HS 578T breast | K-562 leukemia | LOX IMVI melanoma | M14 melanoma | MALME-3M melanoma | MCF7 breast | MDA-MB-435 | MDA-N | NCI-H226 lung | NCI/ADR-RES ovarian | OVCAR-3 ovarian | OVCAR-5 ovarian | PC-3 prostate | RXF 393 renal | SK-MEL-2 melanoma | SK-MEL-28 melanoma | SK-OV-3 ovarian | TK-10 renal | U251 CNS | UACC-257 melanoma
> 91.5 µM: UO-31 renal
98.9 µM: SW-620 colon
> 68.1 µM: SF-268 CNS
> 63.4 µM: SNB-19 CNS
92.8 µM: OVCAR-4 ovarian
> 69.2 µM: CAKI-1 renal
52.8 µM: 786-0 renal
> 77.7 µM: IGROV1 ovarian
> 70 µM: SK-MEL-5 melanoma
> 73.4 µM: A498 renal
62.8 µM: T-47D breast
> 74.2 µM: DU-145 prostate
> 53.5 µM: SF-539 CNS
> 92.2 µM: EKVX NSCLC
> 71.6 µM: COLO 205 colon
> 69.7 µM: SN12C renal

Source: PubChem BioAssay (NCI)
